Measured values from US9150553B2, “Carboxamide compounds and their use as calpain inhibitors” (AbbVie Deutschland GmbH & Co. KG, priority 2007, dated 2015).

Key:
Assay type in all cases: biochemical
[1] = target: T1, cathepsin K activated from recombinant human procathepsin K (Homo sapiens, UniProt P43235); test: Cathepsin K enzyme inhibition, kinetic fluorescence assay; conditions: selectivity ratio
T1 construct: purchased Calbiochem 342001; host or cells: E. coli
T1 sequence (P43235 115-329): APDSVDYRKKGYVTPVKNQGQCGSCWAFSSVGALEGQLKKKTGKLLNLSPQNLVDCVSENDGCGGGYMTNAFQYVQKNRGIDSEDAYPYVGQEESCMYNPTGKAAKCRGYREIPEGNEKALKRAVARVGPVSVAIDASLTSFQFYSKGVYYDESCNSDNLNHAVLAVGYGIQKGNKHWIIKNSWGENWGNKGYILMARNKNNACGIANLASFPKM
Procedure: (§1) The following solutions and buffers were employed: • HBS (for 40 ml): 800 μl 1M HEPES; 2.16 ml 100 mM KCl; 4.8 ml 1M NaCl; 3.59 ml 5% glucose; 60 μl 1M MgSO4; 400 μl 100 mM Na pyruvate, 28.19 ml water; pH 7.2-7.5. • lysis buffer (for 20 ml): 400 μl 1M Tris pH 8.2; 2.74 ml 1M NaCl; 520 μl 0.5M EDTA; 2 ml 10% triton X-100; 0.8 ml (=1:25) CompletePlus (1 tablet/2 ml H2O); 200 μl 100 mM Pefabloc; 13.34 ml water, pH 8.2. • TBST (10×) (for 1I): 100 mM Tris (12.1 g); 1.5M NaCl (87 g); 1% Tween 20 (10 g), adjusted to pH 8. I. Enzyme Inhibition In Vitro: • Testing for blockade of the corresponding enzymic activities was carried out by means of kinetic fluorescence assays (excitation 390 nm, emission 460 nm). • Apparent Ki values were calculated from the experimentally determined IC50 values by the Cheng-Prussoff relation assuming a reversible competitive enzyme inhibition. The Km values of the substrates used under the assay conditions indicated above were: 90 μM (Z-Phe-Arg-AMC, cathepsin B), 10 μM (Z-Gly-Pro-Arg-AMC, cathepsin K), 2 μM (Z-Phe-Arg-AMC, cathepsin L), and 30 μM (Z-Val-Val-Arg-AMC, cathepsin S). • The indicated Ki values are averages of the inhibition constants calculated on the basis of 2 to 4 independent dose-effect plots. • The following assays were used: • 1. Calpain I: • 20 nM calpain-I—isolated from human erythrocytes (Calbiochem #208713), 100 μM Suc-Leu-Tyr-AMC (Bachem #I-1355) as substrate in buffer with 62 mM imidazole, 0.3 mM CaCl2, 0.10% CHAPS, 0.05% BSA, 1 mM DTT at pH 7.3 and room temperature. • 2. Cathepsin B: • 0.25 nM cathepsin B—isolated from human liver (Calbiochem #219362), 100 μM Z-Phe-Arg-AMC (Bachem #I-1160) as substrate 50 mM MES, 2 mM EDTA, 0.05% Brij 35, 2.5 mM L-cysteine, pH 6.0, room temperature. • 3. Cathepsin K: • 3 nM cathepsin K—activated from recombinant human procathepsin K from E. coli (Calbiochem #342001), 10 μM Z-Gly-Pro-Arg-AMC (Biomol #P-142) as substrate in 50 mM MES, 2 mM EDTA, 0.05% Brij 35, 2.5 mM L-cysteine, pH 6.0, room temperature. • 4. […]

[2] = target: T2, cathepsin L isolated from human liver (Homo sapiens, UniProt P07711); test: Cathepsin L enzyme inhibition, kinetic fluorescence assay; conditions: selectivity ratio
T2 construct: cathepsin L—isolated from human liver; purchased Calbiochem 219402; host or cells: human liver (native tissue isolate)
Procedure: as §1

[3] = target: T3, cathepsin B isolated from human liver (Homo sapiens, UniProt P07858); test: Cathepsin B enzyme inhibition, kinetic fluorescence assay; conditions: selectivity ratio
T3 construct: cathepsin B—isolated from human liver; purchased Calbiochem 219362; host or cells: human liver (native tissue isolate)
Procedure: as §1

[4] = target: T4, recombinant human cathepsin S (Homo sapiens, UniProt P25774); test: Cathepsin S enzyme inhibition, kinetic fluorescence assay; conditions: selectivity ratio
T4 construct: purchased Calbiochem 219343; host or cells: E. coli
Procedure: as §1

[5] = target: T5, calpain-I isolated from human erythrocytes (Homo sapiens, UniProt P07384); test: Calpain I enzyme inhibition, kinetic fluorescence assay; conditions: apparent Ki from IC50 by Cheng-Prussoff; pH 7.3, room temperature
T5 construct: calpain-I—isolated from human erythrocytes; purchased Calbiochem 208713; host or cells: human erythrocytes (native tissue isolate)
T5 sequence (P07384 1-714): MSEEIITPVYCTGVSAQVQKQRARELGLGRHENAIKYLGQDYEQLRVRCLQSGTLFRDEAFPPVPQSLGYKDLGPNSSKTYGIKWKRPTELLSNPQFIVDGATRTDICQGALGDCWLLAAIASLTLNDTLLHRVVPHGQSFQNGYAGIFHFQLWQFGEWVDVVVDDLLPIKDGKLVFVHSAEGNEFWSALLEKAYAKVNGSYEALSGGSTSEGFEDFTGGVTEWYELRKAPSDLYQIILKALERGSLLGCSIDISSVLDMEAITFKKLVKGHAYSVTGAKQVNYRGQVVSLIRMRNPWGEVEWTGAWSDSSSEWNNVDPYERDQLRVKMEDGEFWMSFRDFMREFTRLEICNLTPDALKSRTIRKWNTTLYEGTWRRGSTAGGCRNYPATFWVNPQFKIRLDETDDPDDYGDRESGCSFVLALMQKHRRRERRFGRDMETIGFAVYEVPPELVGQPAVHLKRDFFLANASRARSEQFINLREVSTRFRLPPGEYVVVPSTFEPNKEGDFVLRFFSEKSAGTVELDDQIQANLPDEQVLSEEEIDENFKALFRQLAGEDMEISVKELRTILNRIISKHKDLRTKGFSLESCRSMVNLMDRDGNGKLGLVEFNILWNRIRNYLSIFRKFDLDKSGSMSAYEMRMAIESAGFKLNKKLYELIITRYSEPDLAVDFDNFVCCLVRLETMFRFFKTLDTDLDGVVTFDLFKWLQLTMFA
T5 sequence (P04632 1-268 partner): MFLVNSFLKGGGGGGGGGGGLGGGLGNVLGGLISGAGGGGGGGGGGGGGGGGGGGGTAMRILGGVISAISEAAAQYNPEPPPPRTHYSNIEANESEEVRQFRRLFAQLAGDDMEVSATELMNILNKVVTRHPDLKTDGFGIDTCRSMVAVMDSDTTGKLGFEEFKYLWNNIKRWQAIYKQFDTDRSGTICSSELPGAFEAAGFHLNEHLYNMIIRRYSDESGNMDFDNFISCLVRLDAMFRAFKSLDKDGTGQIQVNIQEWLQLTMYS
Procedure: The following solutions and buffers were employed: • HBS (for 40 ml): 800 μl 1M HEPES; 2.16 ml 100 mM KCl; 4.8 ml 1M NaCl; 3.59 ml 5% glucose; 60 μl 1M MgSO4; 400 μl 100 mM Na pyruvate, 28.19 ml water; pH 7.2-7.5. • lysis buffer (for 20 ml): 400 μl 1M Tris pH 8.2; 2.74 ml 1M NaCl; 520 μl 0.5M EDTA; 2 ml 10% triton X-100; 0.8 ml (=1:25) CompletePlus (1 tablet/2 ml H2O); 200 μl 100 mM Pefabloc; 13.34 ml water, pH 8.2. • TBST (10×) (for 1I): 100 mM Tris (12.1 g); 1.5M NaCl (87 g); 1% Tween 20 (10 g), adjusted to pH 8. I. Enzyme Inhibition In Vitro: • Testing for blockade of the corresponding enzymic activities was carried out by means of kinetic fluorescence assays (excitation 390 nm, emission 460 nm). • Apparent Ki values were calculated from the experimentally determined IC50 values by the Cheng-Prussoff relation assuming a reversible competitive enzyme inhibition. The Km values of the substrates used under the assay conditions indicated above were: 90 μM (Z-Phe-Arg-AMC, cathepsin B), 10 μM (Z-Gly-Pro-Arg-AMC, cathepsin K), 2 μM (Z-Phe-Arg-AMC, cathepsin L), and 30 μM (Z-Val-Val-Arg-AMC, cathepsin S). • The indicated Ki values are averages of the inhibition constants calculated on the basis of 2 to 4 independent dose-effect plots. • The following assays were used: • 1. Calpain I: • 20 nM calpain-I—isolated from human erythrocytes (Calbiochem #208713), 100 μM Suc-Leu-Tyr-AMC (Bachem #I-1355) as substrate in buffer with 62 mM imidazole, 0.3 mM CaCl2, 0.10% CHAPS, 0.05% BSA, 1 mM DTT at pH 7.3 and room temperature. • 2. Cathepsin B: • 0.25 nM cathepsin B—isolated from human liver (Calbiochem #219362), 100 μM Z-Phe-Arg-AMC (Bachem #I-1160) as substrate 50 mM MES, 2 mM EDTA, 0.05% Brij 35, 2.5 mM L-cysteine, pH 6.0, room temperature. • 3. Cathepsin K: • 3 nM cathepsin K—activated from recombinant human procathepsin K from E. coli (Calbiochem #342001), 10 μM Z-Gly-Pro-Arg-AMC (Biomol #P-142) as substrate in 50 mM MES, 2 mM EDTA, 0.05% Brij 35, 2.5 mM L-cysteine, pH 6.0, room temperature. • 4. Cathepsin L: • 1 nM cathepsin L—isolated from human liver (Calbiochem #219402), 2 μM Z-Phe-Arg-AMC (Bachem #I-1160) as substrate in 50 mM MES, 2 mM EDTA, 0.05% Brij 35, 2.5 mM L-cysteine, pH 6.0, room temperature. • 5. Cathepsin S: • 0.5 nM recombinant human cathepsin S from E. coli (Calbiochem #219343), 20 μM Z-Val-Val-Arg-AMC (Bachem #I-1540) as substrate in 50 mM MES, 2 mM EDTA, 0.05% Brij 35, 2.5 mM L-cysteine, pH 6.0, room temperature. • The results of the in vitro determination are indicated in Table 2. The following abbreviations are used in Table 2: • The “Calpain activity” column, ++ stands for a calpain Ki (Ki(calpain)) of ≦40 nM, + means: 40 nM<Ki(Calpain)≦100 nM, 0 means 100 nM<Ki(Calpain)≦1 μM, − means 1 μM<Ki(Calpain)≦10 μM, −− means Ki(Calpain)>10 μM. • The “Sel. cat. B” column indicates the Ki(cathepsin B)/Ki(calpain) ratio. In this connection, ++ means a Ki(cathepsin B)/Ki(calpain) ratio of ≧30 and + means≦10≦Ki(cathepsin B)/Ki(calpain)<30. • The “Sel. cat. K” column indicates the Ki(cathepsin K)/Ki(calpain) ratio. In this connection, ++ means a Ki(cathepsin K)/Ki(calpain) ratio of ≧30 and + means 10≦Ki(cathepsin K)/Ki(calpain)<30. • The “Sel. cat. L” column indicates the Ki(cathepsin L)/Ki(calpain) ratio. In this connection, ++ means a Ki(cathepsin L)/Ki(calpain) ratio of ≧50 and + means 30≦Ki(cathepsin L)/Ki(calpain)<50. • The “Sel. cat. S” column indicates the Ki(cathepsin S)/Ki(calpain) ratio. […]

T2 sequence (P07711 114-333): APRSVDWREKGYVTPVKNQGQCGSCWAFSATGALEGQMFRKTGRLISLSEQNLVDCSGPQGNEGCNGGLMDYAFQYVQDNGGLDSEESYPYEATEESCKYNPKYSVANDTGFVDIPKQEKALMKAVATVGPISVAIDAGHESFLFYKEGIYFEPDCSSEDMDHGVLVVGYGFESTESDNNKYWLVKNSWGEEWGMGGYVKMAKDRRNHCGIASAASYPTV
T4 sequence (P25774 115-331): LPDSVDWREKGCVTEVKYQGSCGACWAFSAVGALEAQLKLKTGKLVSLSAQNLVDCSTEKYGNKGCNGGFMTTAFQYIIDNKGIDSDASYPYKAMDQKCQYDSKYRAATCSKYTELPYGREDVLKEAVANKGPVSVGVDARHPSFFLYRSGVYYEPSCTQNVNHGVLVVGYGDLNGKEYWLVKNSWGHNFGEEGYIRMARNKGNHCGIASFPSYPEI

Row | SMILES | Sel cat. K: Ki(cathepsin K)/Ki(calpain) ratio [1] | Sel cat. L: Ki(cathepsin L)/Ki(calpain) ratio [2] | Sel cat. B: Ki(cathepsin B)/Ki(calpain) ratio [3] | Sel cat. S: Ki(cathepsin S)/Ki(calpain) ratio [4] | Ki [5]
1 | NC(=O)C(=O)C(Cc1ccccc1)NC(=O)c1cccnc1-n1ccc(-c2cccc(C(F)(F)F)c2)n1 (stereo not shown) [Compound II-2, N-(3-Amino-1-benzyl-2,3-dioxopropyl)-2-{3-[3-(trifluoromethyl)phenyl]-1H-pyrazol-1-yl}nicotinamide] | ++ (++ means a Ki(cathepsin K)/Ki(calpain) ratio of ≧30) | ++ (++ means a Ki(cathepsin L)/Ki(calpain) ratio of ≧50) | + (+ means≦10≦Ki(cathepsin B)/Ki(calpain)<30) | ++ (++ means a Ki(cathepsin S)/Ki(calpain) ratio of ≧100) | ≤ 40 nM
2 | NC(=O)C(=O)C(Cc1ccc(F)cc1)NC(=O)c1cccnc1-n1ccc(-c2ccc(Cl)cc2Cl)n1 (stereo not shown) [II-1, N-[3-amino-1-(4-fluorobenzyl)-2,3-dioxopropyl]-2-[3-(2,4-dichlorophenyl)-1H-pyrazol-1-yl]nicotinamide] | ++ (++ means a Ki(cathepsin K)/Ki(calpain) ratio of ≧30) | ++ (++ means a Ki(cathepsin L)/Ki(calpain) ratio of ≧50) | ++ (++ means a Ki(cathepsin B)/Ki(calpain) ratio of ≧30) | ++ (++ means a Ki(cathepsin S)/Ki(calpain) ratio of ≧100) | 40 to 100 nM
3 | NC(=O)C(=O)C(Cc1ccccc1)NC(=O)c1cccnc1-n1ccc(-c2ccc(F)cc2)n1 (stereo not shown) [II-3, N-(3-amino-1-benzyl-2,3-dioxopropyl)-2-[3-(4-fluorophenyl)-1H-pyrazol-1-yl]nicotinamide] | + (+ means 10≦Ki(cathepsin K)/Ki(calpain)<30) | ++ (++ means a Ki(cathepsin L)/Ki(calpain) ratio of ≧50) | + (+ means≦10≦Ki(cathepsin B)/Ki(calpain)<30) | ++ (++ means a Ki(cathepsin S)/Ki(calpain) ratio of ≧100) | 40 to 100 nM
4 | NC(=O)C1(C(Cc2ccc(F)cc2)NC(=O)c2cccnc2-n2ccc(-c3ccc(Cl)cc3Cl)n2)OCCO1 (stereo not shown) [Compound I-1, N-[1-[2-(Aminocarbonyl)-1,3-dioxolan-2-yl]-2-(4-fluorophenyl)ethyl]-2-[3-(2,4-dichlorophenyl)-1H-pyrazol-1-yl]nicotinamide] | – | – | – | – | > 10000 nM
